Test results reported in US7417038B1, “Methods of treating cachexia” (Imperial Innovations Limited, priority 1998, dated 2008).
Structures can show the parent of a compound that is named as a salt.

Key:
ETA receptor = target: T1, ETA receptor (Homo sapiens, UniProt P25101); conditions: cited from earlier work; for selectivity for the ETA receptor versus the ETB receptor: ETA vs ETB
T1 sequence (P25101 21-427): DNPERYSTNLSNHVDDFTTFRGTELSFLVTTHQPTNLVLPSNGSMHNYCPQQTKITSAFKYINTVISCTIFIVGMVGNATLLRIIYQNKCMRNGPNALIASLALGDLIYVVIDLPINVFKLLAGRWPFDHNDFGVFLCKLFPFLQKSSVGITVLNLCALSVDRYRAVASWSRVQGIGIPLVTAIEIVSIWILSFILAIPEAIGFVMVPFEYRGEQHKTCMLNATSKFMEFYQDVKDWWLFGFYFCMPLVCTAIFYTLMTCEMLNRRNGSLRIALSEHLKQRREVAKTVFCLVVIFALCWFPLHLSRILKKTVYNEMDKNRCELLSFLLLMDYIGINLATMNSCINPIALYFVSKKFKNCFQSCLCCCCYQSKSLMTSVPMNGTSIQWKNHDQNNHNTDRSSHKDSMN

[1] = Treatment of a hypertensive patient with Atenolol (with co-medication): body weight; assay type: in vivo, human; conditions: baseline 85.6 kg, Atenolol 50 mgs OD with Losartan, Bendrofluazide, Doxazosin, 11 months
Description: A hypertensive patient presented weighing 85.6 kg. They were treated with Losartan 50 mgs OD, Bendrofluazide 2-5 mgs OD, Doxazosin 1 mg OD and Atenolol, a β-blocker, 50 mgs OD. In 11 months their weight increased to 94.3 kg.

[2] = Carvedilol treatment of a cachectic CHF patient: body weight, body composition (bioelectrical impedance), clinical status; assay type: in vivo, human; conditions: one cachectic CHF patient
[3] = Carvedilol treatment of a cachectic CHF patient: symptom limited treadmill exercise testing; assay type: in vivo, human; conditions: one cachectic CHF patient, Carvedilol 3.125 mg to 12.5 mg twice daily, follow-up vs baseline
[4] = target: T2, human cloned ETA receptors (Homo sapiens, UniProt P25101); conditions: cited from earlier work
T2 sequence (P25101 21-427): T1 sequence (P25101 21-427)

[5] = Spironolactone treatment of a cachectic CHF patient: symptom limited treadmill exercise testing; assay type: in vivo, human; conditions: one cachectic CHF patient, spironolactone 25 mg once daily, follow-up vs baseline
Description: The patient had good compliance in taking spironolactone.
Treadmill exercise testing: The patient underwent symptom limited treadmill exercise testing. A standard Bruce protocol was used. The patient breathed through a one-way valve connected to a commercially available respiratory gas analyser (MedGraphics Inc., USA) and minute ventilation and oxygen consumption were recorded on line every 15 seconds. The patient was encouraged to exercise to exhaustion. Exercise time and oxygen consumption at peak exercise adjusted for total body weight (peak VO2 in ml/kg/min) was measured as an index of the exercise capacity. One day prior to the intended baseline exercise test an additional exercise test was performed to familarise the patient with the test procedure.

[6] = Spironolactone treatment of a cachectic CHF patient: body weight and clinical status; conditions: one cachectic CHF patient, spironolactone 25 mg once daily
[7] = Carvedilol, without development of oedema
[8] = without development of any oedema

## CCCCN(CCCC)C(=O)CN1C[C@H](c2cc(OC)c3c(c2)OCO3)[C@@H](C(=O)O)[C@@H]1CC(C)(C)CCC [A-216546]
ETA receptor
  selectivity for the ETA receptor versus the ETB receptor: > 25,000 fold

## CC(C)NCC(O)COc1ccc(CC(N)=O)cc1 (centres unmarked) [Atenolol]
[1]
  body weight after treatment: 94.3 kg

## COc1ccccc1OCCNCC(O)COc1cccc2[nH]c3ccccc3c12 (centres unmarked) [Carvedilol]
[2]; Carvedilol 3.125 mg to 12.5 mg twice daily
  tolerability of the treatment: tolerated the treatment well
[2]; Carvedilol 3.125 mg to 12.5 mg twice daily, bioelectrical impedance
  increase in lean muscle tissue: 1.8 kg
[2]; [7]
  body weight increase: 2.1 kg
  body weight increase (percent): 3.1%
[3]
  VE/VCO2-slope decrease: 15.5%
  peak VO2 increase: 15%

## COc1ccccc1Oc1c(NS(=O)(=O)c2ccc(C)cn2)nc(-c2ccnc(-c3nnn[nH]3)c2)nc1OCCO [Ro 61-1790, 5-methyl-pyridine-2-sulfonic acid 6-(2-hydroxy-ethoxy)-5-(2-methoxy-phenoxy)-2-(2-1H-tetrazol-5-yl-+++pyridin-4-yl)-pyrimidin-4-ylamide]
ETA receptor
  selectivity for the ETA receptor versus the ETB receptor: approximately 1000 fold
ETA receptor; competitive ET antagonist
  affinity to ETA receptor: subnanomolar range

## Cc1ccc(-c2c(NS(=O)(=O)c3ccc(C(C)(C)CO)cc3)ncnc2OCCOc2ncc(Br)cn2)cc1 [T-0201, N-(6-(2-(5-bromopyrimidin-4-yl)-4-(2-hydroxy-1,1-dimethylethyl)-benzensulfonamidesodium salt sesquihydrate]
[4]
  effect on specific binding of [125I]-ET-1: competitively antagonized the specific binding

## CC(=O)S[C@@H]1CC2=CC(=O)CC[C@]2(C)[C@H]2CC[C@@]3(C)[C@@H](CC[C@@]34CCC(=O)O4)[C@H]12 [spironolactone]
[5]
  exercise time increase: 53%
  peak VO2 increase: 79%
[6]
  New York Heart Association functional class (NYHA class) change: class III symptoms to class II symptoms
  side effects of the treatment: no side effects
[6]; [8]
  body weight increase: 1.5 kg
  body weight increase (percent): 2%
